Test results from PubChem BioAssay AID338 (DTP/NCI, 2004).
Where “and” joins values, the source holds several entries; their conditions need not be identical. Identical values can stand only once. Toxic doses and inconclusive results are not listed.

Test system: BDF1 mice, P388 leukemia (terephthalanilide-resistant), survival T/C
Test: NCI In Vivo Anticancer Drug Screen. Data for tumor model P388 Leukemia resistant to A Terephthalanilide; NSC 38280 (intraperitoneal) in B6D2F1 (BDF1) mice
Details: endpoint: median survival time, higher = longer survival
Method: The antitumor activity of compounds was measured in mice bearing transplantable tumors. Survival or tumor size were measured and the results are expressed as the measurement made in the treated group (T) divided by the measurement made in the vehicle treated control group (C). The tumor model used in this assay is P388 Leukemia resistant to A Terephthalanilide; NSC 38280 (intraperitoneal) in B6D2F1 (BDF1) mice

[1] = dose: 20.0 mg/kg/injection, schedule: Q01DX010 (ip), vehicle: saline
[2] = dose: 40.0 mg/kg/injection, schedule: Q01DX010 (ip), vehicle: saline
[3] = dose: 62.5 mg/kg/injection, schedule: Q01DX010 (ip), vehicle: saline
[4] = dose: 125.0 mg/kg/injection, schedule: Q01DX010 (ip), vehicle: saline
[5] = dose: 250.0 mg/kg/injection, schedule: Q01DX010 (ip), vehicle: saline
[6] = dose: 500.0 mg/kg/injection, schedule: Q01DX010 (ip), vehicle: saline
[7] = dose: 8.0 mg/kg/injection, schedule: Q01DX010 (ip), vehicle: saline
[8] = dose: 12.0 mg/kg/injection, schedule: Q01DX010 (ip), vehicle: saline
[9] = dose: 31.3 mg/kg/injection, schedule: Q01DX010 (ip), vehicle: saline
[10] = dose: 25.0 mg/kg/injection, schedule: Q01DX010 (ip), vehicle: saline
[11] = dose: 64.0 mg/kg/injection, schedule: Q01DX010 (ip), vehicle: saline
[12] = dose: 10.0 mg/kg/injection, schedule: Q01DX010 (ip), vehicle: saline

Q: With `OCC1OC(n2cnc3c(=S)nc[nH]c32)C(O)C1O` (centres undefined) as the compound, how does the T/C [1] read?
A: 90 % of control and 111 % of control

Q: And the T/C [2]?
A: 100 % of control and 105 % of control

Q: And the T/C (dose: 80.0 mg/kg/injection, schedule: Q01DX010 (ip), vehicle: saline)?
A: 116 % of control

Q: What about the T/C (dose: 160.0 mg/kg/injection, schedule: Q01DX010 (ip), vehicle: saline) of the same compound?
A: 110 % of control

Q: Which T/C (dose: 5.0 mg/kg/injection, schedule: Q01DX010 (ip), vehicle: alkali diluted with saline) does the source give for `S=c1nc[nH]c2nc[nH]c12` here?
A: 105 % of control

Q: And the T/C (dose: 5.0 mg/kg/injection, schedule: Q01DX Z (ip), vehicle: saline)?
A: 100 % of control

Q: What about the T/C (dose: 10.0 mg/kg/injection, schedule: Q01DX010 (ip), vehicle: alkali diluted with saline) of the same compound?
A: 88 % of control

Q: What about the T/C (dose: 10.0 mg/kg/injection, schedule: Q01DX Z (ip), vehicle: saline) of the same compound?
A: 100 % of control and 104 % of control

Q: What about the T/C (dose: 20.0 mg/kg/injection, schedule: Q01DX010 (ip), vehicle: alkali diluted with saline) of the same compound?
A: 100 % of control

Q: What about the T/C (dose: 20.0 mg/kg/injection, schedule: Q01DX Z (ip), vehicle: saline) of the same compound?
A: 100 % of control and 109 % of control

Q: What about the T/C (dose: 40.0 mg/kg/injection, schedule: Q01DX010 (ip), vehicle: alkali diluted with saline) of the same compound?
A: 94 % of control

Q: What about the T/C (dose: 40.0 mg/kg/injection, schedule: Q01DX Z (ip), vehicle: saline) of the same compound?
A: 122 % of control

Q: What about the T/C (dose: 80.0 mg/kg/injection, schedule: Q01DX Z (ip), vehicle: saline) of the same compound?
A: 154 % of control

Q: What does the source list for `O[C@H](CN1CC1)[C@@H](O)CN1CC1`?
A: T/C (dose: 62.5 micrograms/kg/injection, schedule: Q01DX010 (ip), vehicle: saline): 120 % of control; T/C (dose: 125.0 micrograms/kg/injection, schedule: Q01DX010 (ip), vehicle: saline): 200 % of control; T/C (dose: 250.0 micrograms/kg/injection, schedule: Q01DX010 (ip), vehicle: saline): 175 % of control; T/C (dose: 500.0 micrograms/kg/injection, schedule: Q01DX010 (ip), vehicle: saline): 120 % of control

Q: Which results are given for `CC(=O)N(C)C`?
A: T/C [3]: 90 % of control and 111 % of control; T/C [4]: 100 % of control; T/C [5]: 88 % of control; T/C [6]: 95 % of control and 100 % of control

Q: What does the source list for `O=c1cn[nH]c(=O)[nH]1`?
A: T/C [3]: 105 % of control; T/C [4]: 111 % of control; T/C [5]: 90 % of control and 105 % of control; T/C [6]: 88 % of control

Q: What does the source list for `CCCNC(=NC)c1ccc(NC(=O)c2ccc(C(=O)Nc3ccc(C(=NC)NCCC)cc3)cc2)cc1`?
A: T/C (dose: 5.2 mg/kg/injection, schedule: Q01DX010 (ip), vehicle: saline): 100 % of control; T/C [7]: 100 % of control; T/C [8]: 111 % of control; T/C (dose: 18.0 mg/kg/injection, schedule: Q01DX010 (ip), vehicle: saline): 111 % of control

Q: With `C1CN1c1nc(N2CC2)nc(N2CC2)n1` as the compound, how does the T/C (dose: 0.13 mg/kg/injection, schedule: Q01DX010 (ip), vehicle: saline) read?
A: 94 % of control and 100 % of control

Q: And the T/C (dose: 0.25 mg/kg/injection, schedule: Q01DX010 (ip), vehicle: saline)?
A: 105 % of control and 116 % of control

Q: And the T/C (dose: 0.5 mg/kg/injection, schedule: Q01DX010 (ip), vehicle: saline)?
A: 116 % of control

Q: And the T/C (dose: 1.0 mg/kg/injection, schedule: Q01DX010 (ip), vehicle: saline)?
A: 111 % of control

Q: Which T/C (dose: 0.19 mg/kg/injection, schedule: Q01DX010 (ip), vehicle: other) does the source give for `CN(Cc1cnc2nc(N)nc(N)c2n1)c1ccc(C(=O)N[C@@H](CCC(=O)O)C(=O)O)cc1` here?
A: 122 % of control

Q: And the T/C (dose: 0.38 mg/kg/injection, schedule: Q01DX Z (ip), vehicle: saline)?
A: 172 % of control and 195 % of control

Q: And the T/C (dose: 0.75 mg/kg/injection, schedule: Q01DX010 (ip), vehicle: other)?
A: 194 % of control

Q: What about the T/C (dose: 0.75 mg/kg/injection, schedule: Q01DX Z (ip), vehicle: saline) of the same compound?
A: 272 % of control and 277 % of control

Q: What about the T/C (dose: 1.5 mg/kg/injection, schedule: Q01DX010 (ip), vehicle: other) of the same compound?
A: 216 % of control

Q: And the T/C (dose: 1.5 mg/kg/injection, schedule: Q01DX Z (ip), vehicle: saline)?
A: 213 % of control and 272 % of control

Q: What about the T/C (dose: 3.0 mg/kg/injection, schedule: Q01DX010 (ip), vehicle: other) of the same compound?
A: 111 % of control

Q: What about the T/C (dose: 3.0 mg/kg/injection, schedule: Q01DX Z (ip), vehicle: saline) of the same compound?
A: 90 % of control and 95 % of control

Q: For `CCOC(=O)NP(=O)(N1CC1(C)C)N1CC1(C)C` (centres undefined), which T/C [9] is on record?
A: 110 % of control

Q: What about the T/C [3] of the same compound?
A: 160 % of control

Q: And the T/C [4]?
A: 190 % of control

Q: What about the T/C [5] of the same compound?
A: 160 % of control

Q: Which T/C [9] does the source give for `O=C1CCC(N2C(=O)c3ccccc3C2=O)C(=O)N1` (centres undefined) here?
A: 117 % of control

Q: And the T/C [3]?
A: 100 % of control and 117 % of control

Q: And the T/C [4]?
A: 100 % of control and 105 % of control

Q: And the T/C [5]?
A: 90 % of control and 94 % of control

Q: For `CCN(CC)CCNc1ccc(C)c2sc3ccccc3c(=O)c12`, which T/C [10] is on record?
A: 105 % of control and 122 % of control

Q: What about the T/C (dose: 100.0 mg/kg/injection, schedule: Q01DX010 (ip), vehicle: saline) of the same compound?
A: 100 % of control

Q: `CCCCNc1ncnc2c1cnn2C` was tested. Which T/C [9] did it give?
A: 100 % of control

Q: And the T/C [3]?
A: 95 % of control and 111 % of control

Q: And the T/C [4]?
A: 88 % of control

Q: Which T/C (dose: 16.0 mg/kg/injection, schedule: Q01DX010 (ip), vehicle: saline) does the source give for `Nc1cc(C(=O)Nc2ccc(C3=NCCN3)cc2)cc(C(=O)Nc2ccc(C3=NCCN3)cc2)c1` here?
A: 111 % of control

Q: What about the T/C [11] of the same compound?
A: 183 % of control

Q: For `O=C(Nc1cccc(NC(=O)Nc2cccc(C3=NCCN3)c2)c1)Nc1cccc(C2=NCCN2)c1`, which T/C (dose: 27.0 mg/kg/injection, schedule: Q01DX010 (ip), vehicle: saline) is on record?
A: 111 % of control

Q: What about the T/C [2] of the same compound?
A: 111 % of control

Q: What about the T/C (dose: 66.0 mg/kg/injection, schedule: Q01DX010 (ip), vehicle: saline) of the same compound?
A: 111 % of control

Q: And the T/C (dose: 90.0 mg/kg/injection, schedule: Q01DX010 (ip), vehicle: saline)?
A: 111 % of control

Q: What does the source list for `CN=C(NC)c1ccc(NC(=O)Nc2ccc(NC(=O)Nc3ccc(C(=NC)NC)cc3)cc2)cc1`?
A: T/C (dose: 13.3 mg/kg/injection, schedule: Q01DX010 (ip), vehicle: saline): 111 % of control; T/C [1]: 94 % of control; T/C (dose: 30.0 mg/kg/injection, schedule: Q01DX010 (ip), vehicle: saline): 111 % of control

Q: For `CCCSc1ncnc2nc[nH]c12`, which T/C [9] is on record?
A: 118 % of control

Q: And the T/C [3]?
A: 112 % of control

Q: With `NC(Cc1ccc(N(CCCl)CCCl)cc1)C(=O)O` (centres undefined) as the compound, how does the T/C (dose: 2.0 mg/kg/injection, schedule: Q01DX010 (ip), vehicle: other) read?
A: 163 % of control

Q: And the T/C (dose: 4.0 mg/kg/injection, schedule: Q01DX010 (ip), vehicle: other)?
A: 100 % of control

Q: For `O=C(Nc1ccc(C2=NCCN2)cc1)c1cccc(C(=O)Nc2ccc(C3=NCCN3)cc2)c1`, which T/C [7] is on record?
A: 112 % of control

Q: What about the T/C [11] of the same compound?
A: 150 % of control

Q: `CS(=O)(=O)OCCCCOS(C)(=O)=O` was tested. Which T/C (dose: 6.25 mg/kg/injection, schedule: Q01DX010 (ip), vehicle: saline) did it give?
A: 87 % of control and 100 % of control

Q: And the T/C (dose: 12.5 mg/kg/injection, schedule: Q01DX010 (ip), vehicle: saline)?
A: 100 % of control and 106 % of control

Q: And the T/C [10]?
A: 87 % of control and 100 % of control

Q: What about the T/C (dose: 50.0 mg/kg/injection, schedule: Q01DX010 (ip), vehicle: saline) of the same compound?
A: 106 % of control

Q: How did the T/C (dose: 1.5 mg/kg/injection, schedule: Q01DX010 (ip), vehicle: saline) turn out when `Nc1ncnc2[nH]ncc12` was run?
A: 90 % of control and 95 % of control

Q: What about the T/C (dose: 3.0 mg/kg/injection, schedule: Q01DX010 (ip), vehicle: saline) of the same compound?
A: 90 % of control

Q: What about the T/C (dose: 6.0 mg/kg/injection, schedule: Q01DX010 (ip), vehicle: saline) of the same compound?
A: 90 % of control and 95 % of control

Q: What about the T/C [8] of the same compound?
A: 90 % of control and 100 % of control

Q: What does the source list for `CC1CN=C(c2ccc(NC(=O)c3ccc(C(=O)Nc4ccc(C5=NCC(C)N5)cc4)cc3)cc2)N1` (centres undefined)?
A: T/C [12]: 111 % of control; T/C (dose: 15.0 mg/kg/injection, schedule: Q01DX010 (ip), vehicle: saline): 111 % of control; T/C (dose: 22.0 mg/kg/injection, schedule: Q01DX010 (ip), vehicle: saline): 111 % of control; T/C (dose: 33.0 mg/kg/injection, schedule: Q01DX010 (ip), vehicle: saline): 111 % of control

Q: Which T/C (dose: 1.25 mg/kg/injection, schedule: Q01DX010 (ip), vehicle: saline) does the source give for `Nc1nc(=S)c2[nH]cnc2[nH]1` here?
A: 162 % of control

Q: And the T/C (dose: 2.5 mg/kg/injection, schedule: Q01DX010 (ip), vehicle: saline)?
A: 150 % of control and 175 % of control

Q: What about the T/C [12] of the same compound?
A: 112 % of control
